A melting point compilation (Tetko et al.; mined from patent text by program, amines drawn as free bases though some values may be those of a salt)

Work on `CC(=O)CC(=O)Nc1ccc(-c2ncn(-c3ccc(OC(F)(F)F)cc3)n2)cc1` yielded a melting point of 159 to 164 °C. `COc1cc2c(Nc3cccc(Cl)c3F)ncnc2cc1OC1CCN(C(=O)C(C)(C)CO)CC1` gave a melting point of 111 to 115 °C. Work on `COc1ccc2ccc(=O)[nH]c2c1` yielded a melting point of 190 °C. For `Cn1c(COc2ccc(CC3SC(=O)NC3=O)cc2)nc2ccc(Oc3ccc4cccc(NC(=O)NCc5ccccc5)c4c3)cc21` (stereo unspecified), the melting point was 220 to 222 °C. Compound `C=Cc1ccc(CN2CCNCCNCC2)cc1` has a melting point of 56 to 59 °C. With `O=C(CBr)c1csc(C(F)(F)F)n1` the melting point was 36 to 37 °C. `COC(=O)c1ccc(Sc2cccc(OCCCCl)c2)cc1` showed a melting point of 47 to 49 °C. Compound `CC(=O)CCC1CCC2C(C=CC3=CCCc4c3n2c2ccncc42)C1` (stereo unspecified) has a melting point of 102 °C. Compound `CCCN(CCC)CCc1ccc(OCc2ccccc2)c(NC(N)=O)c1` has a melting point of 70 to 88 °C. In the case of `CSC(=S)N1CCN(CC2=C(C)C(=O)C(C)=C(C)C2=O)CC1`, the melting point is reported as 133 to 135 °C. `Cc1cccc(-n2nc(C(N)=O)nc2-c2ccccc2)c1` gave a melting point of 142 to 143 °C. With `O=C1CCC(N2Cc3c(OCc4nc5cc(CN6CCOCC6)ccc5s4)cccc3C2=O)C(=O)N1` (stereo unspecified) the melting point was 228 to 230 °C. `CCN(C)c1nc2ccccc2n2cnc(-c3nc(C4CC4)no3)c12` showed a melting point of 96 to 97 °C. For `CC(C)Oc1cc(COc2cc(CCC(=O)O)n(-c3ccccc3)n2)cc(COc2ncc(C(F)(F)F)cc2Cl)c1`, the melting point was 140 to 142 °C. Work on `CSc1nc(NC(=O)NS(=O)(=O)c2ccccc2C(=O)OC(C)C)nn1C` yielded a melting point of 192 to 194 °C. `Cc1nc(O)c(C)c(O)n1` showed a melting point of 300 °C. `Cc1nnc(-c2ccc3occ(-c4ccc(S(C)=O)c(C)c4)c3c2)o1` (stereo unspecified) gave a melting point of 195 to 196 °C. `NC(=O)C1=NN(c2ccccc2)C(C(=O)O)=NN1c1ccccc1` showed a melting point of 241 to 242 °C. With `N=C(Nc1ccc2[nH]cc(C3CCN(C(=O)c4ccccc4)CC3)c2c1)c1cccs1` the melting point was 180 to 183 °C. `CC(C)c1cccc(C(C)C)c1NC(=O)N(Cc1ccc(O)cc1)CC1(c2cccc(N(C)C)c2)CCCCC1` gave a melting point of 166 to 168 °C. `COc1ccc(/C=C(\C#N)c2ccc([N+](=O)[O-])cc2)cc1OC1CCCC1` gave a melting point of 186 to 187 °C. With `O=C(Nc1ccc(Br)cc1)OC1CN2CCC1CC2` (stereo unspecified) the melting point was 218 to 220 °C. With `CCCCCCCC(N)=NO` the melting point was 73 to 75 °C. Work on `Cc1ccc(Cc2nc3c(cnn3C(CCCc3ccccc3)C(C)O)c(=O)[nH]2)cc1` (stereo unspecified) yielded a melting point of 133 °C. Compound `CCOC(=O)c1c(Cl)nc2cc(F)c(F)cc2c1CCl` has a melting point of 264 °C. Compound `CCOC(=O)c1cnc2cc(CC)ccc2c1O` has a melting point of 257 to 260 °C. Work on `Cc1cc(O)nc2nc(SCc3ccccc3)nn12` yielded a melting point of 219 to 220 °C. Compound `Cn1c(C(F)(F)F)cc(=O)n(-c2c(F)cc(Cl)c3c2OC(C)(C)CC3)c1=O` has a melting point of 132 to 135 °C. For `CC(CCCC(O)(C(F)(F)F)C(F)(F)F)C1CCC2C3C=CC4=CC(=O)C5OC5C4(C)C3CCC12C` (stereo unspecified), the melting point was 181 to 184 °C. With `Cc1c(N2CC3(CC3)[C@](C)(N)C2)ccc2c(=O)c(C(=O)O)cn([C@@H]3C[C@@H]3F)c12` the melting point was 157 to 159 °C. With `C=CCOC(=O)c1cccc(S(=O)(=O)n2c(=O)[nH]c(=O)c3ccc(Cl)cc32)c1` the melting point was 187 to 189 °C. Compound `CCc1cc(OC)c(S(C)(=O)=O)cc1C(=O)N=C(N)N` has a melting point of 192 to 195 °C. `Cc1csc(C(=O)c2[nH]c3cc(Cl)ccc3c2CC(=O)O)n1` gave a melting point of 239 to 240 °C. `Nc1ccc(Cc2ccccn2)cc1[N+](=O)[O-]` showed a melting point of 128 to 132 °C. `CCNC(=O)NS(=O)(=O)c1cc2c(cc1OC)OCCC2CNC(=O)c1cc(Cl)ccc1OC` (stereo unspecified) showed a melting point of 211 to 213 °C. In the case of `O=C(Cc1ccc(Cl)c(Cl)c1)N1CCCC(N2CCCC2)C1` (stereo unspecified), the melting point is reported as 134 to 135 °C. `CC1OC(=O)C(c2ccccc2)OC1=O` (stereo unspecified) gave a melting point of 153 to 156 °C. Compound `CC1(n2cccc2)CN(c2c(F)cc3c(=O)c(C(=O)O)cn(C4CC4)c3c2F)C1` has a melting point of 249 to 252 °C. For `O=C(O)C1CN(CCCS(=O)(=O)O)CCN1` (stereo unspecified), the melting point was 190 to 191 °C. `c1ccc(COc2ccc3c(c2)CCc2c-3[nH]c3ccc(OCc4ccccc4)cc23)cc1` showed a melting point of 177 to 180 °C. `CCOC(=O)NCCN1CCC(n2c(=O)[nH]c3cc(Cl)ccc32)CC1` gave a melting point of 188 °C. Compound `Cc1ccccc1-n1c(C=Cc2ccccc2F)nc2cnccc2c1=O` has a melting point of 211 to 212 °C. In the case of `COc1cnn([C@@H]2C[C@H](O)[C@@H](O)[C@H]2O)c(=O)c1Cl` (racemic), the melting point is reported as 166 to 168 °C. With `CC(C)(C)OC(=O)N1CCN(C(=O)Oc2ccc(Oc3ccc(C(F)(F)F)cn3)cc2)CC1` the melting point was 165 to 166 °C. Compound `CNC(=O)c1cccc(C(=O)OC)c1` has a melting point of 128 to 130 °C. `CCOC(=O)c1cn(C)c2ccc(C(=O)c3c(C)c(OC)c4ccccn34)cc2c1=O` gave a melting point of 258 °C. Work on `COc1ccc(CN2C(=O)c3ccccc3C2=O)cc1OC` yielded a melting point of 160 to 161 °C. Work on `COc1ccc2c(c1)c(O)c(C#N)n2-c1ccccc1` yielded a melting point of 182 °C. With `CCC[C@@H]1CCC[C@H](NC(=O)OC(C)(C)C)C(=O)N1` the melting point was 114 to 116 °C. Compound `O=C(CCCCCl)c1ccccc1` has a melting point of 49 to 50 °C. Work on `CCOC(=O)c1cc2n(c1)CNc1ccccc1-2` yielded a melting point of 140 to 141 °C. In the case of `CC(C)(C)OC(=O)NCCOc1noc2ccc(Cl)cc12`, the melting point is reported as 106 to 107 °C. `CCc1cccc2nc3c(=O)[nH][nH]c(=O)c3c(O)c12` gave a melting point of over 400 °C. Compound `O=C(C=Cc1ccc(NC(=O)c2ccc3ccccc3c2)cc1)NO` has a melting point of 231 to 233 °C. With `O=C(c1ccc(Oc2cccc3ccccc23)cc1)C(O)O` the melting point was 93 to 96 °C. Compound `CC(=O)NCC1CN(c2ccc(N3CCC(C4NN=C(N)S4)CC3)c(F)c2)C(=O)O1` (stereo unspecified) has a melting point of 168 to 169 °C. `CC(=O)OCc1c2ccccc2cc2ccccc12` showed a melting point of 110 to 112 °C. `COc1ccc(-c2nc(C(=O)NC3CCN(Cc4ccccc4)CC3)sc2-c2ccc(OC)cc2)cc1` gave a melting point of 130 to 131 °C. Compound `Nc1ccccc1Nc1ccc(I)cc1` has a melting point of 122 to 123 °C. `Cn1c(=O)c(-c2ccc(Cl)cc2Cl)cc2c3cc(-c4ccn[nH]4)ccc3n(C)c21` showed a melting point of 281 to 282 °C. `O=C(Nc1ccccc1F)c1c(O)ccn2c1nc1ccccc12` showed a melting point of 237 to 238 °C. `CC(C)(C)CNc1cc(F)cc(C(=O)Nc2ccc(OCCN3CCOCC3)c3ccccc23)c1` gave a melting point of 85 to 87 °C. In the case of `O=C(Nc1ccc(OCCCBr)cc1)c1cccc2c(=O)c3ccccc3[nH]c12`, the melting point is reported as 126 °C. With `NC(=O)Nc1ccc(OC(F)C(F)(F)F)cc1` (stereo unspecified) the melting point was 167 to 168 °C. With `CCOC(=O)C(Cc1cccc2ccccc12)C(=O)OCC` the melting point was 30 °C. With `O=C1NCCc2[nH]c3c(F)ccc(F)c3c21` the melting point was 221 to 223 °C. Compound `Cc1nn(-c2cc3nc(S)sc3cc2Br)c(=O)n1C(F)F` has a melting point of 254 to 256 °C. In the case of `COc1cc2c(c(C(C)C)c1OC)C(=O)NS2(=O)=O`, the melting point is reported as 186 to 188 °C. `CCOP(=O)(Cc1ccccc1NC(=O)C1=Cc2cc(C3CCCCC3)ccc2CC1)OCC` showed a melting point of 102 to 103 °C. With `Cc1ccc(Nc2ccc(Nc3ncnc4cc(-c5ccccc5)sc34)cc2)cc1` the melting point was 221 to 222 °C. In the case of `CC(=O)OC1CSC(Br)C(OC(C)=O)C1OC(C)=O` (stereo unspecified), the melting point is reported as 175 °C. Work on `O=c1c(Cc2ccncc2)c(-c2ccc(Cl)cc2)[nH]c2ccccc12` yielded a melting point of 232 to 234 °C. Compound `COC(=O)c1ccc(C(=O)C=C(c2cc(Cl)cc(Cl)c2)C(F)(F)F)cc1` has a melting point of 65.5 to 67.5 °C. With `CC1CC2=CC(=O)CCC2=C2CCC3(C)C(=O)CCC3C21` (stereo unspecified) the melting point was 204 to 205 °C. For `COC(=O)c1ccc(CCc2nc(-c3ccccc3)c(C)s2)cc1`, the melting point was 52 to 53 °C. For `CCOC(=O)c1cc(I)c(F)c(F)c1F`, the melting point was 33 to 34 °C. In the case of `CC(=O)c1cc(-c2c(C)c(NC(=O)CC(C)(C)C)c(C)c3c2OCC3c2ccc(C(C)C)cc2)cs1` (stereo unspecified), the melting point is reported as 133 to 134 °C. Compound `CNC(=S)NCC1=C(n2ccccc2=O)c2cc([N+](=O)[O-])ccc2OC1(C)C` has a melting point of 225 °C. Compound `CN(C)c1ccc(-c2nc3c(N[C@H]4[C@@H](C(N)=O)[C@@H]5C=C[C@H]4C5)ccnc3[nH]2)cc1` has a melting point of 245 to 251 °C. For `Cn1nc(-c2ccc(Cl)cc2Cl)cc1OC(F)F`, the melting point was 35 °C. For `CCOC(=O)CC1(c2ccc(OC)c(OC)c2)CNC(=O)C1` (stereo unspecified), the melting point was 60 to 62 °C. Compound `CC(=O)NNC1=Nc2sc(Cl)cc2C(c2c(F)cccc2F)=NC1` has a melting point of 257 to 260 °C. `CS(=O)(=O)c1c(C(=O)O)ccc(Cl)c1Oc1ccccc1` showed a melting point of 231 to 235 °C. Work on `O=C(c1ccc(Cn2ccc3ccccc32)cc1)N1CCC(N2CCCC2)C1` (stereo unspecified) yielded a melting point of 141 to 153 °C. For `O=C(NC(Cc1ccccc1)c1ccccn1)c1ccccc1` (stereo unspecified), the melting point was 153 to 154 °C. Work on `COc1cccc(/C(=C\C=C\C(=O)NCCCCc2cccnc2)c2ccccc2)c1` yielded a melting point of 89 to 91 °C. `CN1C(=O)SC(S(=O)(=O)c2cccc3c(Br)cccc23)C1=O` (stereo unspecified) gave a melting point of 150 to 151 °C. Work on `CC1CCCCN1c1cc(F)cc(C(=O)Nc2ccc(OCCN3CCOCC3)c3ccccc23)c1` (stereo unspecified) yielded a melting point of 75 to 78 °C. `O=C(CC1CC2CCC1C2)Nc1ccccc1C(c1ccc(O)cc1)c1ccc(O)cc1` (stereo unspecified) showed a melting point of 125 to 127 °C. Compound `O[C@@H]1CNC[C@H]1Oc1ccccc1` (relative stereo) has a melting point of 120 to 122 °C. `O=C1C=C(c2c[nH]c3ccc(OCc4ccccc4)cc23)C(=O)N1` showed a melting point of 211 °C. `CC(=O)Nc1c(C)c(C)c2c(c1C)CC(C)(CN1CCC(c3ccccc3)CC1)O2` (stereo unspecified) gave a melting point of 94 to 96 °C. In the case of `CCC/C=C/c1ccc(C#CC(C)(C)O)cc1`, the melting point is reported as 65 °C. For `CCCC[C@H](NC(=O)[C@H](CC(C)C)NC(=O)c1c(F)cccc1F)C(=O)CSCc1ccco1`, the melting point was 116 °C. With `CC(C)COC(=O)ON1C(=O)CCC1=O` the melting point was 33 to 35 °C. Work on `Cc1ccccc1Oc1nc(Cl)cc(Cl)n1` yielded a melting point of 78 to 79 °C. `CC(NC(=O)c1cc(Cl)ccc1[N+](=O)[O-])C1CC1` (stereo unspecified) showed a melting point of 137 to 141 °C. Work on `C=C(F)C(=O)Oc1ccc(C#N)cc1` yielded a melting point of 78 to 79 °C. `CCC1CC(=O)c2cc(C(C)C(N)=O)ccc2O1` (stereo unspecified) showed a melting point of 148 to 150 °C. `N#Cc1ccc2cc(OCCC(c3ccccc3)(c3ccccc3)c3ccccc3)ccc2c1` gave a melting point of 207 to 208 °C. `N#Cc1cccc(N2C(=O)CC(=O)Nc3c2ccc2ccccc32)c1` showed a melting point of 220 to 222 °C.
